The numbers were not newly measured in US11234954B2, “Low-dose doxepin for treatment of sleep disorders in elderly patients” (Pernix Sleep, Inc., priority 2006, dated 2022), which cites them from elsewhere.

SMILES strings stand for the structures.

For the data set the following is noted: major active metabolite of doxepin; cited from earlier work.

Consider `CNCC/C=C1\c2ccccc2COc2ccccc21` [desmethyldoxepin, Desmethyldoxepin], for which the half-life is 51 h.

In general, half-life refers to the time needed for the level to fall by half in the phase considered.
